Measured values: patent publication US9233965B2, “3,4-dihydropyrrolo[1,2-A]pyrazine-2,8(1H)-dicarboxamide derivatives, preparation thereof and therapeutic use thereof for diseases involving casein kinase 1 epsilon and/or casein kinase 1 delta” (SANOFI, priority 2010, dated 2016)

Biological target: casein kinase 1 epsilon (CK1 epsilon) (Homo sapiens (Human), UniProt P49674)
Assay: Test A: inhibitory activity on CK1 epsilon, casein phosphorylation assay on ATP-33P filter plate
Format: biochemical
Details: IC50 values or IC50 ranges (result of several experiments), ATP 10 μM final
Method: The capacity of the compounds of the invention to inhibit the phosphorylation of casein by casein kinase 1 epsilon and/or delta may be evaluated according to the procedures described in document US 2005/0 131 012.
Test A: Inhibitory Activity on CK1 Epsilon Measured by Assay on an ATP-^33P Filter Plate
The effect of the compounds on inhibition of the phosphorylation of casein by the enzyme casein kinase 1 epsilon (CK1 epsilon) is measured, using a casein assay via filtration of ATP-^33P in vitro.
Casein kinase 1 epsilon (0.58 mg/ml) is obtained via fermentation and purification processes performed according to methods that are well known to those skilled in the art, or may also be obtained from Invitrogen Corporation™ (human CK1 epsilon).
The compounds are tested at five different concentrations so as to generate IC50 values, i.e. the concentration at which a compound is capable of inhibiting the enzymatic activity by 50%, or alternatively the percentage of inhibition at a concentration of 10 micromolar.
“U”-bottomed Falcon plates are prepared by placing 5 μL of solutions of the compounds according to the invention at concentrations of 10, 1, 0.1, 0.01 or 0.001 μM in different wells. The solutions of the compounds according to the invention at these various concentrations are prepared by diluting in a test buffer (Tris 50 mM pH 7.5, MgCl2 […], DTT 2 mM and EGTA 1 mM) a stock solution in DMSO at a concentration of 10 mM. Next, 5 μL of dephosphorylated casein are added to a final concentration of 0.2 μg/μL, 20 μL of CK1 epsilon to a final concentration of 3 ng/μL, and 20 μL of ATP-^33P to a final concentration of 0.02 μCi/μL mixed with cold ATP (10 μM final—approximately 2×10^6 CPM per well). The final total test volume per well is equal to 50 μL.
The “U”-bottomed Falcon® test plate mentioned above is vortexed, and then incubated at room temperature for 2 hours. After 2 hours the reaction is stopped by adding an ice-cold solution of 65 μL of cold ATP (2 mM) prepared in test buffer.
100 μL of the reaction mixture are then transferred from the “U”-bottomed Falcon® plate into Millipore® MAPH filter plates, preimpregnated with 25 μL of ice-cold 100% TCA.
The Millipore MAPH filter plates are agitated gently and are left to stand at room temperature for at least 30 minutes to precipitate the proteins.
After 30 minutes, the filter plates are sequentially washed and filtered with 2×150 μL of 20% TCA, 2×150 μL of 10% TCA and 2×150 μL of 5% TCA (6 washes in total per plate/900 μL per well).
The plates are left to dry overnight at room temperature. Next, 40 μL of Microscint-20 Packard® scintillation liquid are added per well and the plates are closed in a leaktight manner. The radiation emitted by each well is then measured for 2 minutes in a TopCount NXT Packard® scintillation counter, in which the values of CPM/well are measured.
The percentage inhibition of the capacity of the enzyme to phosphorylate the substrate (casein) is determined for each concentration of test compound. These inhibition data expressed as percentages are used to calculate the IC50 value for each compound compared with the controls.
The kinetic studies determined the KM value for ATP as being 21 μM in this test system.
Table 2 below gives the IC50 values or the IC50 inhibition ranges (result of several experiments) for the phosphorylation of Casein Kinase 1 Epsilon for a number of compounds according to the invention.

Chain of casein kinase 1 epsilon (CK1 epsilon) (P49674 whole entry): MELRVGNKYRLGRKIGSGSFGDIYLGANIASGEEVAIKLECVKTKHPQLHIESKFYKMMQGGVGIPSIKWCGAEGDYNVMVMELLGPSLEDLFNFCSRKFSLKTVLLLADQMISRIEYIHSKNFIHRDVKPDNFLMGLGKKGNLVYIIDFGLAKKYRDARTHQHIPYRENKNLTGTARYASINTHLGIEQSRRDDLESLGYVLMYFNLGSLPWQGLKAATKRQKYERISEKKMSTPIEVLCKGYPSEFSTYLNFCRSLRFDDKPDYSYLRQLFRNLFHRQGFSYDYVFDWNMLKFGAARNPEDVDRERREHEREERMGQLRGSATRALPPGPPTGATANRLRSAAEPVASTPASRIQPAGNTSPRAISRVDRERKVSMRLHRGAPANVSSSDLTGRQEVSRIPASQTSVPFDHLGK

SMILES	IC50
CN(C)S(=O)(=O)Nc1cccc(-c2c(C(N)=O)c3n(c2C2CC2)CCN(C(=O)NC(C)(C)C)C3)c1 [Compound 26, N^2-tert-butyl-6-cyclo-propyl-7-{3-[(dimethylsulfamoyl)amino]phenyl}-3,4-dihydropyrrolo[1,2-a]pyrazine-2,8(1H)-dicarboxamide]	521 nM
NC(=O)c1c(-c2cccc(F)c2)c(Cl)n2c1CN(C(=O)NC1CCS(=O)(=O)C1)CC2 (stereo not shown) [Compound 102, 6-chloro-N^2-(1,1-dioxydotetrahydrothiophen-3-yl)-7-(3-fluorophenyl)-3,4-dihydropyrrolo[1,2-a]pyrazine-2,8(1H)-dicarboxamide]	4 to 11 nM
CN(C)C(=O)c1cccc(-c2c(C(N)=O)c3n(c2C2CC2)CCN(C(=O)NC(C)(C)C)C3)c1 [Compound 17, N^2-tert-butyl-6-cyclo-propyl-7-[3-(dimethylcarbamoyl)phenyl]-3,4-dihydropyrrolo[1,2-a]pyrazine-2,8(1H)-dicarboxamide]	958 nM
Cc1nnc(-c2ccc(-c3c(C(N)=O)c4n(c3C3CC3)CCN(C(=O)NC(C)(C)C)C4)cc2)o1 [Compound 23, N^2-tert-butyl-6-cyclo-propyl-7-[4-(5-methyl-1,3,4-oxadiazol-2-yl)phenyl]-3,4-dihydropyrrolo[1,2-a]pyrazine-2,8(1H)-dicarboxamide]	65 nM
CC(C)(C)NC(=O)N1CCn2c(c(C(N)=O)c(-c3ccc(C(=O)N4CCCC4)cc3)c2C2CC2)C1 [Compound 19, N^2-tert-butyl-6-cyclo-propyl-7-[4-(pyrrolidin-1-ylcarbonyl)phenyl]-3,4-dihydropyrrolo[1,2-a]pyrazine-2,8(1H)-dicarboxamide]	587 nM
C[C@@H]1CC(NC(=O)N2CCn3c(Cl)c(-c4cccc(F)c4)c(C(N)=O)c3C2)C[C@H](C)O1 (stereo partly drawn) [Compound 100, cis-6-chloro-N^2-(2,6-dimethyl-tetrahydro-2H-pyran-4-yl)-7-(3-fluorophenyl)-3,4-dihydropyrrolo[1,2-a]pyrazine-2,8(1H)-dicarboxamide]	> 1 nM
CC(C)(C)NC(=O)N1CCn2c(c(C(N)=O)c(-c3cccc(OC(F)(F)F)c3)c2C2CC2)C1 [Compound 35, N^2-tert-butyl-6-cyclo-propyl-7-[3-(trifluoromethoxy)phenyl]-3,4-dihydropyrrolo[1,2-a]pyrazine-2,8(1H)-dicarboxamide]	25 nM
CC(C)(C)NC(=O)N1CCn2c(c(C(N)=O)c(-c3ccc(OCC4CC4)cc3)c2C2CC2)C1 [Compound 37, N^2-tert-butyl-6-cyclo-propyl-7-[4-(cyclo-propylmethoxy)phenyl]-3,4-dihydropyrrolo[1,2-a]pyrazine-2,8(1H)-dicarboxamide]	62 nM
CON=C1CCC(NC(=O)N2CCn3c(Cl)c(-c4cccc(F)c4)c(C(N)=O)c3C2)CC1 (stereo not drawn) [Compound 86, trans-6-chloro-7-(3-fluorophenyl)-N^2-(4-methoxyimino-cyclohexyl)-3,4-dihydropyrrolo[1,2-a]pyrazine-2,8(1H)-dicarboxamide]	< 1 nM
CC(C)(C)NC(=O)N1CCn2c(c(C(N)=O)c(-c3cccc(OCC4CC4)c3)c2C2CC2)C1 [Compound 33, N^2-tert-butyl-6-cyclo-propyl-7-[3-(cyclo-propylmethoxy)phenyl]-3,4-dihydropyrrolo[1,2-a]pyrazine-2,8(1H)-dicarboxamide]	847 nM
COc1ccc(-c2c(C(N)=O)c3n(c2C)CCN(C(=O)NC(C)(C)C)C3)cc1 [Compound 4, N^2-tert-butyl-7-(4-methoxyphenyl)-6-methyl-3,4-dihydropyrrolo[1,2-a]pyrazine-2,8(1H)-dicarboxamide]	1 to 3 nM
NC(=O)c1c(-c2cccc(F)c2)c(Cl)n2c1CN(C(=O)NCCCC(F)(F)F)CC2 [Compound 81, 6-chloro-7-(3-fluorophenyl)-N^2-(4,4,4-trifluorobutyl)-3,4-dihydropyrrolo[1,2-a]pyrazine-2,8(1H)-dicarboxamide]	2 to 16 nM
CC(C)(C)NC(=O)N1CCn2c(c(C(N)=O)c(-c3ccc(-c4ccccc4)cc3)c2C2CC2)C1 [Compound 15, 7-(biphenyl-4-yl)-N^2-tert-butyl-6-cyclo-propyl-3,4-dihydropyrrolo[1,2-a]pyrazine-2,8(1H)-dicarboxamide]	2 to 4 nM
CN(C)c1ccc(-c2c(C(N)=O)c3n(c2C2CC2)CCN(C(=O)NC(C)(C)C)C3)cc1 [Compound 28, N^2-tert-butyl-6-cyclo-propyl-7-[4-(dimethylamino)phenyl]-3,4-dihydropyrrolo[1,2-a]pyrazine-2,8(1H)-dicarboxamide]	4 nM
NC(=O)c1c(-c2ccccc2)c(Cl)n2c1CN(C(=O)NC1CCS(=O)(=O)C1)CC2 (stereo not shown) [Compound 101, 6-chloro-N^2-(1,1-dioxydotetrahydrothiophen-3-yl)-7-phenyl-3,4-dihydropyrrolo[1,2-a]pyrazine-2,8(1H)-dicarboxamide]	9 to 24 nM
CSc1ccc(-c2c(C(N)=O)c3n(c2C2CC2)CCN(C(=O)NC(C)(C)C)C3)cc1 [Compound 48, N^2-tert-butyl-6-cyclo-propyl-7-[4-(methylsulfanyl)phenyl]-3,4-dihydropyrrolo[1,2-a]pyrazine-2,8(1H)-dicarboxamide]	1 to 2 nM
CC(C)(C)NC(=O)N1CCn2c(c(C(N)=O)c(-c3ccc(OCC#N)cc3)c2C2CC2)C1 [Compound 43, N^2-tert-butyl-7-[4-(cyanomethoxy)phenyl]-6-cyclo-propyl-3,4-dihydropyrrolo[1,2-a]pyrazine-2,8(1H)-dicarboxamide]	24 nM
COc1cccc(-c2c(C(N)=O)c3n(c2Cl)CCN(C(=O)NC(C)(C)C)C3)c1 [Compound 62, tert-butyl-6-chloro-7-(3-methoxyphenyl)-3,4-dihydropyrrolo[1,2-a]pyrazine-2,8(1H)-dicarboxamide]	1 to 4 nM
CC(C)(C)NC(=O)N1CCn2c(c(C(N)=O)c(-c3ccc(C#N)cc3)c2C2CC2)C1 [Compound 22, N^2-tert-butyl-7-(4-cyanophenyl)-6-cyclo-propyl-3,4-dihydropyrrolo[1,2-a]pyrazine-2,8(1H)-dicarboxamide]	25 nM
CC(C)(C)NC(=O)N1CCn2c(c(C(N)=O)c(-c3ccc(C4CCCCC4)cc3)c2C2CC2)C1 [Compound 14, N^2-tert-butyl-7-(4-cyclo-hexylphenyl)-6-cyclo-propyl-3,4-dihydropyrrolo[1,2-a]pyrazine-2,8(1H)-dicarboxamide]	136 to 1090 nM
COc1ccc(-c2c(C(N)=O)c3n(c2C2CC2)CCN(C(=O)NC2CC2)C3)cc1 [Compound 6, N^2-6-di-cyclo-propyl-7-(4-methoxyphenyl)-3,4-dihydropyrrolo[1,2-a]pyrazine-2,8(1H)-dicarboxamide]	28 to 57 nM
CC(C)(C)NC(=O)N1CCn2c(c(C(N)=O)c(-c3ccc(OCc4ccc(F)cc4)cc3)c2C2CC2)C1 [Compound 41, N^2-tert-butyl-6-cyclo-propyl-7-{4-[(4-fluorobenzyl)oxy]phenyl}-3,4-dihydropyrrolo[1,2-a]pyrazine-2,8(1H)-dicarboxamide]	42 nM
NC(=O)c1c(-c2cccc(F)c2)c(Cl)n2c1CN(C(=O)NC1CCS(=O)(=O)CC1)CC2 [Compound 103, 6-chloro-N^2-(1,1-dioxydotetrahydro-2H-thiopyran-4-yl)-7-(3-fluorophenyl)-3,4-dihydropyrrolo[1,2-a]pyrazine-2,8(1H)-dicarboxamide]	7 to 14 nM
CC(C)(C)NC(=O)N1CCn2c(c(C(N)=O)c(-c3ccc(OC(F)(F)F)cc3)c2C2CC2)C1 [Compound 44, N^2-tert-butyl-6-cyclo-propyl-7-[4-(trifluoromethoxy)phenyl]-3,4-dihydropyrrolo[1,2-a]pyrazine-2,8(1H)-dicarboxamide]	33 nM
CC(C)(C)NC(=O)N1CCn2c(c(C(N)=O)c(-c3ccc(N4CCOCC4)cc3)c2C2CC2)C1 [Compound 30, N^2-tert-butyl-6-cyclo-propyl-7-[4-(morpholin-4-yl)phenyl]-3,4-dihydropyrrolo[1,2-a]pyrazine-2,8(1H)-dicarboxamide]	331 nM
